Test results: paper PMC5578959, “Selective LRRK2 kinase inhibition reduces phosphorylation of endogenous Rab10 and Rab12 in human peripheral mononuclear blood cells” (Scientific Reports, 2017)

How the values were obtained:
[1] = system: Rab10-pThr73; experiment: Western Blot, HEK293 cells co-expressing HA-Rab10 and LRRK2 variants; type: cell-based, human; conditions: 100 nM; HEK293 co-overexpressing HA-Rab10 and LRRK2 WT, G2019S or R1441C
Protocol: Plasmids encoding various LRRK2 and Rab GTPase protein variants were transiently expressed in HEK293 cells using Lipofectamine®2000 according to the manufacturer’s instructions (Thermo Fisher Scientific, US).
HEK293 cells were plated at a density of 1 × 10^6 cells/well in 6-well plates pre-coated for 1 hr at 37 °C with poly-L-lysin. Subsequent to the transient transfection HEK293 cells were harvested using 1 mL cold Phosphate Buffered Saline (PBS) buffer (Invitrogen, California, US) and subsequently centrifuged at 800 g for 2 minutes. Cell pellets were resuspended and solubilized in 100 µL lysis buffer (50 mM Tris hydrochloride, 1 mM magnesium chloride, 1% Triton, 0.1% sodium dodecyl sulfate (SDS), pH 8.0) on ice for 20 minutes and then centrifuged at 20,000 g for 30 minutes at 4 °C. The solubilized crude cell lysate was size mobility separated by SDS-polyacrylamide gel electrophoresis (SDS-PAGE). LRRK2 was separated on a 3–8% Tris-Acetate gel (NuPAGE® Tris-Acetate Mini Gels, Life Technologies, Paisley, UK) and Rab10 and Rab12 were separated using a NuPAGE® Novex 4–12% Bis-Tris Gel (Invitrogen, California, US). An amount of 10 µg total protein was loaded in each well. Proteins were transferred to immobilon-FL PVDF membranes (Millipore, Billerica, US).

[2] = system: MARK3,MARK4,QIK; experiment: KiNativ profiling in human PBMCs; type: binding; conditions: Lys1
Method in brief: (§1)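 After live treatment with either 0.1 µM or 1 µM compound, human peripheral blood mononuclear cells underwent KiNativ kinase profiling to compare engagement and selectivity.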

[3] = system: T1, JAK2 domain2; experiment: KiNativ profiling in human PBMCs; type: binding; conditions: Activation Loop
T1 construct: JAK2 domain2; purchased ActivX Technologies (KiNativ)
Method in brief: as §1

[4] = system: SGK,SGK2,SGK3; experiment: KiNativ profiling in human PBMCs; type: binding; conditions: Lys1
Method in brief: as §1

[5] = system: PI4KA, PI4KAP2; experiment: KiNativ profiling in human PBMCs; type: binding; conditions: ATP
[6] = system: T2, MARK4; experiment: KiNativ profiling in human PBMCs; type: binding; conditions: Lys2
T2 construct: purchased ActivX Technologies (KiNativ)

[7] = system: T3, COT; experiment: KiNativ profiling in human PBMCs; type: binding; conditions: ATP Loop
T3 construct: purchased ActivX Technologies (KiNativ)

[8] = system: T4, p38b; experiment: KiNativ profiling in human PBMCs; type: binding; conditions: Protein Kinase Domain
T4 construct: purchased ActivX Technologies (KiNativ)

[9] = system: T5, CDK9; experiment: KiNativ profiling in human PBMCs; type: binding; conditions: Lys2
T5 construct: purchased ActivX Technologies (KiNativ)

[10] = system: T6, MAP2K2; experiment: KiNativ profiling in human PBMCs; type: binding; conditions: Lys2
T6 construct: purchased ActivX Technologies (KiNativ)

[11] = system: T7, SRPK1; experiment: KiNativ profiling in human PBMCs; type: binding; conditions: Lys2
T7 construct: purchased ActivX Technologies (KiNativ)

[12] = system: T8, VRK2; experiment: KiNativ profiling in human PBMCs; type: binding; conditions: Lys2
T8 construct: purchased ActivX Technologies (KiNativ)

[13] = system: T9, MST4; experiment: KiNativ profiling in human PBMCs; type: binding; conditions: Lys1
T9 construct: purchased ActivX Technologies (KiNativ)

[14] = system: T10, BLK; experiment: KiNativ profiling in human PBMCs; type: binding; conditions: Activation Loop
T10 construct: purchased ActivX Technologies (KiNativ)

[15] = system: T11, CLK3; experiment: KiNativ profiling in human PBMCs; type: binding; conditions: ATP Loop
T11 construct: purchased ActivX Technologies (KiNativ)

[16] = system: T12, MAP2K1; experiment: KiNativ profiling in human PBMCs; type: binding; conditions: Lys2
T12 construct: purchased ActivX Technologies (KiNativ)

[17] = system: T13, ATR; experiment: KiNativ profiling in human PBMCs; type: binding; conditions: ATP
T13 construct: purchased ActivX Technologies (KiNativ)

[18] = system: T14, GPRK5; experiment: KiNativ profiling in human PBMCs; type: binding; conditions: Lys2
T14 construct: purchased ActivX Technologies (KiNativ)

[19] = system: ROCK1, ROCK2; experiment: KiNativ profiling in human PBMCs; type: binding; conditions: Lys2
[20] = system: AMPKa1,AMPKa2; experiment: KiNativ profiling in human PBMCs; type: binding
Method in brief: as §1

[21] = system: T15, AMPKa1; experiment: KiNativ profiling in human PBMCs; type: binding; conditions: ATP Loop
T15 construct: purchased ActivX Technologies (KiNativ)
Method in brief: as §1

[22] = system: T16, MAPKAPK3; experiment: KiNativ profiling in human PBMCs; type: binding; conditions: ATP Loop
T16 construct: purchased ActivX Technologies (KiNativ)
Method in brief: as §1

[23] = system: T17, ITPK1; experiment: KiNativ profiling in human PBMCs; type: binding; conditions: ATP
T17 construct: purchased ActivX Technologies (KiNativ)

Structure (SMILES): Cc1cccc(-c2cc(Nc3ccn(C)n3)nc3[nH]cc(C#N)c23)c1 [Lu AF58786]
- phosphorylation of Rab10 (pThr73) [1]: no phosphorylation
- Inhibition ([2]; 0.1µM): 3.0%
- Inhibition ([2]; 1µM): 5.7%
- Inhibition ([3]; 0.1µM): 16.1%
- Inhibition ([3]; 1µM): -3.5%
- Inhibition ([4]; 0.1µM): 7.0%
- Inhibition ([4]; 1µM): 0.243%

Structure (SMILES): Cn1cc(-c2c[nH]c3ncnc(N4CCOCC4)c23)cc1C#N [PFE-360]
- % Inhibition ([5]; 0.1µM): -6%
- % Inhibition ([5]; 1µM): 4.4%
- % Inhibition ([6]; 0.1µM): 14.8%
- % Inhibition ([6]; 1µM): -6.1%
- % Inhibition ([7]; 0.1µM): 26.3%
- % Inhibition ([7]; 1µM): 7.7%
- % Inhibition ([8]; 0.1µM): 3.5%
- % Inhibition ([8]; 1µM): 7%
- % Inhibition ([9]; 0.1µM): -8.9%
- % Inhibition ([9]; 1µM): -4.4%
- % Inhibition ([10]; 0.1µM): -11.4%
- % Inhibition ([10]; 1µM): 20.4%
- % Inhibition ([11]; 0.1µM): 12.7%
- % Inhibition ([11]; 1µM): -13.2%
- % Inhibition ([12]; 0.1µM): -2.9%
- % Inhibition ([12]; 1µM): 8.4%
- % Inhibition ([13]; 0.1µM): -26.3%
- % Inhibition ([13]; 1µM): -30%
- % Inhibition ([14]; 0.1µM): 12.4%
- % Inhibition ([14]; 1µM): -11.6%
- % Inhibition ([15]; 0.1µM): 3.8%
- % Inhibition ([15]; 1µM): -6.8%
- % Inhibition ([16]; 0.1µM): -25.9%
- % Inhibition ([16]; 1µM): 6.5%
- % Inhibition ([17]; 0.1µM): -25.8%
- % Inhibition ([17]; 1µM): 10.7%
- % Inhibition ([18]; 0.1µM): 19.3%
- % Inhibition ([18]; 1µM): 1.5%
- % Inhibition ([19]; 0.1µM): -31.8%
- % Inhibition ([19]; 1µM): -10.7%
- % Inhibition ([20]; 0.1µM, Lys1): 0.8%
- % Inhibition ([20]; 0.1µM, Lys2): -17.7%
- % Inhibition ([20]; 1µM, Lys1): -2.7%
- % Inhibition ([20]; 1µM, Lys2): 7.4%
- % Inhibition ([21]; 0.1µM): -1%
- % Inhibition ([21]; 1µM): 4%
- % Inhibition ([22]; 0.1µM): -5.1%
- % Inhibition ([22]; 1µM): -8.3%
- % Inhibition ([23]; 0.1µM): -34%
- % Inhibition ([23]; 1µM): -34.7%
